{"source": "patent US20060058312A1", "about": "“Stabilized aqueous preparation for injection” (priority 2004, published 2006)", "assay_type_in_all_cases": "physicochemical", "key": {"[1]": {"test": "Stability test at 60° C., effect of pH value without ascorbic acid (Example 3), HPLC content", "conditions": "no addition of ascorbic acid; for remaining calcium levofolinate content compared with the initial value (100): 60° C.", "procedure": "For the aqueous preparations obtained in (1) to (3) above, tests evaluating stability at 60° C./3 weeks were performed. The calcium levofolinate content remaining in the aqueous solution was measured using high performance liquid chromatography under the following conditions (the same were employed in the following experiments) 2 ml each of the test preparations were weighed, and 10 ml of the internal standard solution described below (the same was employed in the following experiments) were added thereto. Subsequently, water was added to adjust the total volume of the solution to 50 ml, thereby to prepare a test solution. Meanwhile, 62.5 mg of calcium levofolinate were dissolved in water so as to prepare a 25 ml solution. Then, to 10 ml of the resultant solution were added 10 ml of the internal standard solution, and the total volume of the solution was adjusted to 50 ml by adding water, thereby to prepare a standard solution. For 20 μl of the standard solution and the test solution, the content of calcium levofolinate was measured by the liquid chromatography method under the following conditions.\n1) Measurement Conditions • Detector: Ultraviolet absorptiometer (Measurement wavelength: 254 nm) • Column: A stainless tube having an internal diameter of 4.0 mm and a length of 15 cm was filled with 5 μm of octadecylsilylated silica gel for liquid chromatography. • Column temperature: A constant temperature near 45° C. • Mobile phase: The pH value of a mixed test solution containing 0.008 mol/L of disodium hydrogen phosphate solution/methanol/40% aqueous tetrabutylammonium hydroxide solution (385:110:1.3 (volume ratio)) was adjusted to 7.5 by adding phosphoric acid. • Flow rate: The flow rate was regulated so that the retention time of calcium levofolinate became about 10 minutes. • Internal standard solution: A solution prepared by adding water to 0.04 g of methyl parahydroxybenzoate so that the whole amount of solution is 100 ml.\nAbout 80 ml of water for injection were added to a beaker (volume: 200 ml). Then, 0.56 g of sodium chloride and 0.3 g of tromethamine were added to it with bubbling of nitrogen gas, and the components were dissolved with stirring and heating to 45 to 50° C. Subsequently, 1.375 g of calcium levofolinate (1.1 g, in terms of 5-formyl-(6S)-tetrahydrofolic acid) were added, and the components were dissolved with stirring. Thereafter, the pH value of the solution was adjusted to 6.0 by adding 5% hydrochloric acid solution dropwise. A similar procedure to the above was performed to produce solutions, each having a regulated pH value of 7.0, 7.5, 7.9, 8.1, 8.3, 8.7, 9.0, 9.2, and 9.5 (1% aqueous sodium hydroxide solution was used in place of 5% hydrochloric acid solution).\nWater for injection was further added to each solution to adjust the total volume of the solution to 100 ml. Subsequently, the bubbling of nitrogen gas was stopped, and each solution was filtered with a filtration filter, thereby to yield a solution for injection. Subsequently, each of nine 5 ml-glass ampules the inside space of which had been substituted by nitrogen gas was filled with 5 ml of the resultant solution for injection, and was sealed by heating.\nFor each aqueous preparation obtained as above, a test evaluating stability at 60° C. was performed by measuring the remaining levofolinate content by the high performance liquid chromatography method. […] In the cases of pH 6 to 7 and pH 8.7 to pH 9, an extremely excellent stabilizing effect was confirmed."}, "[2]": {"test": "Content during storage of the preparation of the present invention", "conditions": "storage at 40° C./4 months (equivalent to 25° C./2 years)", "description": "In the preparation of the present invention, the pH value of the aqueous preparation is most desirably 6 to 7, the antioxidant is a combination of ascorbic acid with sodium pyrosulfite, and the concentration of the antioxidant is 0.1 to 0.3 w/v %. However, in the case where the concentration of sodium pyrosulfite is not less than 0.2 w/v %, precipitants form in the aqueous preparation. The preparation of the present invention is desirably included in an inner container, e.g., a syringe in a double package form which comprises an inner container and an outer bag, where a deoxidant (oxygen absorber) is placed between the inner container and the outer bag. The preparation of the present invention can be used as a pharmaceutical. The content of calcium salt of 5-formyl-(6S)-tetrahydrofolic acid (i.e. calcium levofolinate) is 90% or more during storage at 40° C./4 months (this condition is equivalent to 25° C./2 years)"}, "[3]": {"test": "Transmittance and coloring of the aqueous solution during storage", "conditions": "aqueous solution", "description": "The suppressing effect can be attained by the action of ascorbic acid which has been stabilized by sodium pyrosulfite."}}}
{"smiles": "Nc1nc(=O)c2c([nH]1)NC[C@H](CNc1ccc(C(=O)N[C@@H](CCC(=O)O)C(=O)O)cc1)N2C=O", "note": "[calcium levofolinate, (6S)-N-[4-[[(2-amino-5-formyl-1,4,5,6,7,8-hexahydro-4-oxo-6-pteridinyl)methyl]amino]benzoyl]-L-glutamic acid]", "values": [{"measurement": "remaining calcium levofolinate content compared with the initial value (100)", "setting": "[1]; pH value 6.0, 1 month", "result": 88.7}, {"measurement": "remaining calcium levofolinate content compared with the initial value (100)", "setting": "[1]; pH value 6.0, 1 week", "result": 94.7}, {"measurement": "remaining calcium levofolinate content compared with the initial value (100)", "setting": "[1]; pH value 6.0, 2 weeks", "result": 92.5}, {"measurement": "remaining calcium levofolinate content compared with the initial value (100)", "setting": "[1]; pH value 6.0, 3 weeks", "result": 90.1}, {"measurement": "calcium levofolinate content, Initial value (100)", "setting": "[1]; pH value 6.0", "result": 100}, {"measurement": "remaining calcium levofolinate content compared with the initial value (100)", "setting": "[1]; pH value 7.0, 1 month", "result": 88.6}, {"measurement": "remaining calcium levofolinate content compared with the initial value (100)", "setting": "[1]; pH value 7.0, 1 week", "result": 94.8}, {"measurement": "remaining calcium levofolinate content compared with the initial value (100)", "setting": "[1]; pH value 7.0, 2 weeks", "result": 92.2}, {"measurement": "remaining calcium levofolinate content compared with the initial value (100)", "setting": "[1]; pH value 7.0, 3 weeks", "result": 90.1}, {"measurement": "calcium levofolinate content, Initial value (100)", "setting": "[1]; pH value 7.0", "result": 100}, {"measurement": "remaining calcium levofolinate content compared with the initial value (100)", "setting": "[1]; pH value 7.5, 1 month", "result": 84.2}, {"measurement": "remaining calcium levofolinate content compared with the initial value (100)", "setting": "[1]; pH value 7.5, 1 week", "result": 93.4}, {"measurement": "remaining calcium levofolinate content compared with the initial value (100)", "setting": "[1]; pH value 7.5, 2 weeks", "result": 89.0}, {"measurement": "remaining calcium levofolinate content compared with the initial value (100)", "setting": "[1]; pH value 7.5, 3 weeks", "result": 86.8}, {"measurement": "calcium levofolinate content, Initial value (100)", "setting": "[1]; pH value 7.5", "result": 100}, {"measurement": "remaining calcium levofolinate content compared with the initial value (100)", "setting": "[1]; pH value 7.9, 1 month", "result": 81.9}, {"measurement": "remaining calcium levofolinate content compared with the initial value (100)", "setting": "[1]; pH value 7.9, 1 week", "result": 95.1}, {"measurement": "remaining calcium levofolinate content compared with the initial value (100)", "setting": "[1]; pH value 7.9, 2 weeks", "result": 89.7}, {"measurement": "remaining calcium levofolinate content compared with the initial value (100)", "setting": "[1]; pH value 7.9, 3 weeks", "result": 86.3}, {"measurement": "calcium levofolinate content, Initial value (100)", "setting": "[1]; pH value 7.9", "result": 100}, {"measurement": "remaining calcium levofolinate content compared with the initial value (100)", "setting": "[1]; pH value 8.1, 1 week", "result": 95.4}, {"measurement": "remaining calcium levofolinate content compared with the initial value (100)", "setting": "[1]; pH value 8.1, 2 weeks", "result": 91.5}, {"measurement": "remaining calcium levofolinate content compared with the initial value (100)", "setting": "[1]; pH value 8.1, 3 weeks", "result": 85.6}, {"measurement": "calcium levofolinate content, Initial value (100)", "setting": "[1]; pH value 8.1", "result": 100}, {"measurement": "remaining calcium levofolinate content compared with the initial value (100)", "setting": "[1]; pH value 8.3, 1 week", "result": 93.6}, {"measurement": "remaining calcium levofolinate content compared with the initial value (100)", "setting": "[1]; pH value 8.3, 2 weeks", "result": 91.1}, {"measurement": "remaining calcium levofolinate content compared with the initial value (100)", "setting": "[1]; pH value 8.3, 3 weeks", "result": 85.5}, {"measurement": "calcium levofolinate content, Initial value (100)", "setting": "[1]; pH value 8.3", "result": 100}, {"measurement": "remaining calcium levofolinate content compared with the initial value (100)", "setting": "[1]; pH value 8.7, 1 week", "result": 94.7}, {"measurement": "remaining calcium levofolinate content compared with the initial value (100)", "setting": "[1]; pH value 8.7, 2 weeks", "result": 93.6}, {"measurement": "remaining calcium levofolinate content compared with the initial value (100)", "setting": "[1]; pH value 8.7, 3 weeks", "result": 88.3}, {"measurement": "calcium levofolinate content, Initial value (100)", "setting": "[1]; pH value 8.7", "result": 100}, {"measurement": "remaining calcium levofolinate content compared with the initial value (100)", "setting": "[1]; pH value 9.0, 1 week", "result": 96.1}, {"measurement": "remaining calcium levofolinate content compared with the initial value (100)", "setting": "[1]; pH value 9.0, 2 weeks", "result": 93.3}, {"measurement": "remaining calcium levofolinate content compared with the initial value (100)", "setting": "[1]; pH value 9.0, 3 weeks", "result": 88.6}, {"measurement": "calcium levofolinate content, Initial value (100)", "setting": "[1]; pH value 9.0", "result": 100}, {"measurement": "remaining calcium levofolinate content compared with the initial value (100)", "setting": "[1]; pH value 9.2, 1 week", "result": 94.4}, {"measurement": "remaining calcium levofolinate content compared with the initial value (100)", "setting": "[1]; pH value 9.2, 2 weeks", "result": 93.4}, {"measurement": "remaining calcium levofolinate content compared with the initial value (100)", "setting": "[1]; pH value 9.2, 3 weeks", "result": 87.7}, {"measurement": "calcium levofolinate content, Initial value (100)", "setting": "[1]; pH value 9.2", "result": 100}, {"measurement": "remaining calcium levofolinate content compared with the initial value (100)", "setting": "[1]; pH value 9.5, 1 week", "result": 93.7}, {"measurement": "remaining calcium levofolinate content compared with the initial value (100)", "setting": "[1]; pH value 9.5, 2 weeks", "result": 92.4}, {"measurement": "remaining calcium levofolinate content compared with the initial value (100)", "setting": "[1]; pH value 9.5, 3 weeks", "result": 85.3}, {"measurement": "calcium levofolinate content, Initial value (100)", "setting": "[1]; pH value 9.5", "result": 100}, {"measurement": "content of calcium levofolinate during storage", "setting": "[2]", "result": "≥ 90", "unit": "%"}, {"measurement": "transmittance of the aqueous solution during storage", "setting": "[3]", "result": "lowers gradually"}]}
